Laboratory results from patent US11083725B2 (priority 2014, dated 2021).

Test system: NHBE cells
Assay: Biolog metabolic array: substrate use by NHBE cells with or without CA09 infection
Type: cell-based, human
Conditions: for Substrate use, 590 nm absorbance normalized to zero hour, 0 hr: Biolog PMM2, 0 hr; for Substrate use, 590 nm absorbance normalized to zero hour, 1 hr: Biolog PMM2, 1 hr; for Substrate use, 590 nm absorbance normalized to zero hour, 5 hr: Biolog PMM2, 5 hr; for Substrate use, 590 nm absorbance normalized to zero hour, 7 hr: Biolog PMM2, 7 hr
[1] = Control (uninfected) NHBE cells
[2] = Virus (CA09-infected, MOI 1) NHBE cells
[3] = Virus: CA09-infected NHBE cells, MOI 1, Biolog PMM2

| SMILES | 590 nm absorbance normalized to zero hour (substrate use), 0 hr [1] | 590 nm absorbance normalized to zero hour (substrate use), 1 hr [1] | 590 nm absorbance normalized to zero hour (substrate use), 2 hr [1] | 590 nm absorbance normalized to zero hour (substrate use), 3 hr [1] | 590 nm absorbance normalized to zero hour (substrate use), 4 hr [1] | 590 nm absorbance normalized to zero hour (substrate use), 6 hr [1] | 590 nm absorbance normalized to zero hour (substrate use), 8 hr [1] | 590 nm absorbance normalized to zero hour (substrate use), 9 hr [1] | 590 nm absorbance normalized to zero hour (substrate use), 10 hr [1] | 590 nm absorbance normalized to zero hour (substrate use), 11 hr [1] | Substrate use, 590 nm absorbance normalized to zero hour, 0 hr [1] | Substrate use, 590 nm absorbance normalized to zero hour, 1 hr [1] | Substrate use, 590 nm absorbance normalized to zero hour, 5 hr [1] | Substrate use, 590 nm absorbance normalized to zero hour, 7 hr [1] | 590 nm absorbance normalized to zero hour (substrate use), 0 hr [2] | 590 nm absorbance normalized to zero hour (substrate use), 1 hr [2] | 590 nm absorbance normalized to zero hour (substrate use), 2 hr [2] | 590 nm absorbance normalized to zero hour (substrate use), 3 hr [2] | 590 nm absorbance normalized to zero hour (substrate use), 4 hr [2] | 590 nm absorbance normalized to zero hour (substrate use), 5 hr [2] | further results |
| --- | --- | --- | --- | --- | --- | --- | --- | --- | --- | --- | --- | --- | --- | --- | --- | --- | --- | --- | --- | --- | --- |
| CC(O)CO (stereo not drawn) [1,2-Propanediol] | 1.00 | 1.28 | 1.41 | 1.17 | 1.19 | 0.68 | 1.12 | 1.22 | 1.15 | 1.18 | 1.00 | 1.28 | 1.27 | 1.17 | 1.00 | 1.95 | 2.44 | 2.83 | 2.94 | 3.29 | 590 nm absorbance normalized to zero hour (substrate use), 6 hr [2]: 3.55; 590 nm absorbance normalized to zero hour (substrate use), 7 hr [2]: 3.75; 590 nm absorbance normalized to zero hour (substrate use), 8 hr [2]: 3.87; 590 nm absorbance normalized to zero hour (substrate use), 9 hr [2]: 4.24; 590 nm absorbance normalized to zero hour (substrate use), 10 hr [2]: 4.34; 590 nm absorbance normalized to zero hour (substrate use), 11 hr [2]: 4.75; 590 nm absorbance normalized to zero hour (substrate use), 0 hr [3]: 1.00; 590 nm absorbance normalized to zero hour (substrate use), 1 hr [3]: 1.95; 590 nm absorbance normalized to zero hour (substrate use), 2 hr [3]: 2.44; 590 nm absorbance normalized to zero hour (substrate use), 3 hr [3]: 2.83; 590 nm absorbance normalized to zero hour (substrate use), 4 hr [3]: 2.94; 590 nm absorbance normalized to zero hour (substrate use), 5 hr [3]: 3.29; 590 nm absorbance normalized to zero hour (substrate use), 6 hr [3]: 3.55; 590 nm absorbance normalized to zero hour (substrate use), 7 hr [3]: 3.75; 590 nm absorbance normalized to zero hour (substrate use), 8 hr [3]: 3.87; 590 nm absorbance normalized to zero hour (substrate use), 9 hr [3]: 4.24; 590 nm absorbance normalized to zero hour (substrate use), 10 hr [3]: 4.34; 590 nm absorbance normalized to zero hour (substrate use), 11 hr [3]: 4.75 |
| O=C(CO)[C@@H](O[C@H]1O[C@H](CO)[C@@H](O)[C@H](O)[C@H]1O)[C@H](O)[C@H](O)CO [Turanose] | 1.00 | 0.23 | 0.31 | 0.36 | 0.40 | 0.49 | 0.51 | 0.57 | 0.57 | 0.60 | 1.00 | 0.23 | 0.55 | 0.44 | 1.00 | 0.20 | 0.28 | 0.34 | 0.36 | 0.44 | 590 nm absorbance normalized to zero hour (substrate use), 6 hr [2]: 0.48; 590 nm absorbance normalized to zero hour (substrate use), 7 hr [2]: 0.51; 590 nm absorbance normalized to zero hour (substrate use), 8 hr [2]: 0.56; 590 nm absorbance normalized to zero hour (substrate use), 9 hr [2]: 0.61; 590 nm absorbance normalized to zero hour (substrate use), 10 hr [2]: 0.60; 590 nm absorbance normalized to zero hour (substrate use), 11 hr [2]: 0.55; 590 nm absorbance normalized to zero hour (substrate use), 0 hr [3]: 1.00; 590 nm absorbance normalized to zero hour (substrate use), 1 hr [3]: 0.20; 590 nm absorbance normalized to zero hour (substrate use), 2 hr [3]: 0.28; 590 nm absorbance normalized to zero hour (substrate use), 3 hr [3]: 0.34; 590 nm absorbance normalized to zero hour (substrate use), 4 hr [3]: 0.36; 590 nm absorbance normalized to zero hour (substrate use), 5 hr [3]: 0.44; 590 nm absorbance normalized to zero hour (substrate use), 6 hr [3]: 0.48; 590 nm absorbance normalized to zero hour (substrate use), 7 hr [3]: 0.51; 590 nm absorbance normalized to zero hour (substrate use), 8 hr [3]: 0.56; 590 nm absorbance normalized to zero hour (substrate use), 9 hr [3]: 0.61; 590 nm absorbance normalized to zero hour (substrate use), 10 hr [3]: 0.60; 590 nm absorbance normalized to zero hour (substrate use), 11 hr [3]: 0.55 |
| OC[C@H]1O[C@@H](O[C@H]2[C@H](O)[C@@H](O)[C@H](O)O[C@@H]2CO)[C@H](O)[C@@H](O)[C@@H]1O [D-Cellobiose] | 1.00 | 1.74 | 2.30 | 2.69 | 2.91 | 4.52 | 4.59 | 5.13 | 5.20 | 5.51 | 1.00 | 1.74 | 3.55 | 4.26 | 1.00 | 1.58 | 2.09 | 2.38 | 2.49 | 2.81 | 590 nm absorbance normalized to zero hour (substrate use), 6 hr [2]: 3.00; 590 nm absorbance normalized to zero hour (substrate use), 7 hr [2]: 3.14; 590 nm absorbance normalized to zero hour (substrate use), 8 hr [2]: 3.31; 590 nm absorbance normalized to zero hour (substrate use), 9 hr [2]: 3.54; 590 nm absorbance normalized to zero hour (substrate use), 10 hr [2]: 3.69; 590 nm absorbance normalized to zero hour (substrate use), 11 hr [2]: 4.06; 590 nm absorbance normalized to zero hour (substrate use), 0 hr [3]: 1.00; 590 nm absorbance normalized to zero hour (substrate use), 1 hr [3]: 1.58; 590 nm absorbance normalized to zero hour (substrate use), 2 hr [3]: 2.09; 590 nm absorbance normalized to zero hour (substrate use), 3 hr [3]: 2.38; 590 nm absorbance normalized to zero hour (substrate use), 4 hr [3]: 2.49; 590 nm absorbance normalized to zero hour (substrate use), 5 hr [3]: 2.81; 590 nm absorbance normalized to zero hour (substrate use), 6 hr [3]: 3.00; 590 nm absorbance normalized to zero hour (substrate use), 7 hr [3]: 3.14; 590 nm absorbance normalized to zero hour (substrate use), 8 hr [3]: 3.31; 590 nm absorbance normalized to zero hour (substrate use), 9 hr [3]: 3.54; 590 nm absorbance normalized to zero hour (substrate use), 10 hr [3]: 3.69; 590 nm absorbance normalized to zero hour (substrate use), 11 hr [3]: 4.06 |
